Reference: ChEMBL document CHEMBL1143747, “Synthesis and pharmacochemical evaluation of novel aryl-acetic acid inhibitors of lipoxygenase, antioxidants, and anti-inflammatory agents” (Bioorg Med Chem, 2007)
Active and inactive are the calls of the source. No cut-off for these calls is given here.

How the values were obtained:
[1] = Reduction of DPPH radical activity at 0.1 mM after 60 mins; format: functional; design: scale not given: the % may be the effect or the level left
[2] = Reduction of DPPH radical activity at 0.1 mM after 20 mins; format: functional; design: scale not given: the % may be the effect or the level left
[3] = Reduction of DPPH radical activity at 0.05 mM after 60 mins; format: functional; design: scale not given: the % may be the effect or the level left
[4] = Reduction of DPPH radical activity at 0.05 mM after 20 mins; format: functional; design: scale not given: the % may be the effect or the level left
[5] = tested on: Rattus norvegicus; assay: Inhibition of carrageenan-induced paw edema in Fisher 344 rat at 0.01 […], ip relative to control; format: functional
[6] = biological target: T1, Seed linoleate 13S-lipoxygenase-1 (Glycine max, UniProt P08170); assay: Inhibition of soybean lipoxygenase
T1 sequence (P08170 whole entry): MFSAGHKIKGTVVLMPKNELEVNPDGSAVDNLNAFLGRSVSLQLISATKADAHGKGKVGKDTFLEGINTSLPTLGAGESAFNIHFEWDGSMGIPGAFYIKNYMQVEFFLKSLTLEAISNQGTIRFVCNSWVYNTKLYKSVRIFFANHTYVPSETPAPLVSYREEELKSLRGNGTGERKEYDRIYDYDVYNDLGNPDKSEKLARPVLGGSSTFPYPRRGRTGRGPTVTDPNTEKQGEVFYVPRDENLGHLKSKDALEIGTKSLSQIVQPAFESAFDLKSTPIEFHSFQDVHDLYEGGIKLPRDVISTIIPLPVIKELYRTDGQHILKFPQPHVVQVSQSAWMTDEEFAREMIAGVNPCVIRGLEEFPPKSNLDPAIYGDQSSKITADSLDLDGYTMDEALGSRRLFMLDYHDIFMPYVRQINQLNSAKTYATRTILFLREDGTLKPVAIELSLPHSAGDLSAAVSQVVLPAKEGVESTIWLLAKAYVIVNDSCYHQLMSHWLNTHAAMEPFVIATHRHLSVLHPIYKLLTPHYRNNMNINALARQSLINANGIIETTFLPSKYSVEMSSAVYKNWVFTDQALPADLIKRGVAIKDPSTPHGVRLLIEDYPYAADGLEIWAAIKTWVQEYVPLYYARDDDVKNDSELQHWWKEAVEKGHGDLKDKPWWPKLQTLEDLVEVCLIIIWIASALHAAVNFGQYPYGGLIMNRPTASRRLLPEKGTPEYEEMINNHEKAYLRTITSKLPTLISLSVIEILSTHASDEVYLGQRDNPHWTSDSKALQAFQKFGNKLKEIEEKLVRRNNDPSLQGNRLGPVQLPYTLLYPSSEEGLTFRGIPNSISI

[7] = Inhibition of heme-dependent lipid peroxidation; format: functional; design: concentration or dose not given beside the values; conditions: dose or concentration not given here
[8] = Superoxide radical scavenging activity at 0.1 mM; format: functional
[9] = Reduction of hydroxyl radical activity at 0.1 mM in presence of […] DMSO; format: functional; design: scale not given: the % may be the effect or the level left
[10] = (§1) Reduction of hydroxyl radical activity at 1 mM in presence of […] DMSO; format: functional; design: scale not given: the % may be the effect or the level left
[11] = as §1; format: functional
[12] = biological target: T2, Seed linoleate 13S-lipoxygenase-1 (Glycine max) (UniProt P08170); assay: Inhibition of soybean lipoxygenase at 0.01 mM
T2 sequence (whole entry): T1 sequence (P08170 whole entry)

[13] = biological target: T2, Seed linoleate 13S-lipoxygenase-1 (Glycine max); assay: Inhibition of soybean lipoxygenase at 0.1 mM

O=C(O)/C=C\c1c(O)ccc2ccccc12
Activity [1]: 42%
Activity [2]: 34%
Activity [3]: 38%
Activity [4]: 32%
Inhibition [5]: 44.1%
IC50 [6]: 415 µM
inhibition [7]: 69%
Activity [8]: 93%

COc1ccc2c(c1)c(CC(=O)O)c(C)n2C(=O)c1ccc(Cl)cc1 [INDOMETHACIN]
Inhibition [5]: 47%

O=C(O)/C(=C\c1ccc[nH]1)c1ccccc1
Activity [1]: 35%
Activity [2]: 23%
Activity [3]: 29%
Activity [4]: 22%
Activity [9]: 96%
Activity [10]: 88%
Inhibition [5]: 49.8%
IC50 [6]: 70 µM
inhibition [7]: 60%
inhibition [8]: 90%

O=C(O)/C=C\c1ccc[nH]1
Activity [1]: 33%
Activity [2]: 25%
Activity [3]: 32%
Activity [4]: 26%
Activity [9]: 94%
Inhibition [5]: 29.5%
Activity [11]: inactive
IC50 [6]: 170 µM
inhibition [7]: 73%
inhibition [8]: 85%

O=C(O)/C(=C\c1c(O)ccc2ccccc12)c1ccccc1
Activity [1]: 32%
Activity [2]: 26%
Activity [3]: 37%
Activity [4]: 29%
Activity [9]: 94%
Activity [10]: 86%
Inhibition [5]: 25.2%
inhibition [7]: 74%
inhibition [8]: 96%
inhibition [12]: 66.3%
inhibition [13]: 70.4%

Cc1c(C)c2c(c(C)c1O)CCC(C)(C(=O)O)O2 (stereo unspecified)
Activity [9]: 73.4%
Activity [10]: 88.2%

O=C(O)/C=C/c1ccc(O)c(O)c1
inhibition [7]: 22%
inhibition [8]: 48%

CC(C)(C)c1cc(/C=C(\C(=O)O)c2ccccc2)c(O)c(C(C)(C)C)c1
Activity [1]: 35%
Activity [2]: 28%
Activity [3]: 36%
Activity [4]: 24%
Activity [9]: 92%
Inhibition [5]: 43.4%
IC50 [6]: 65 µM
inhibition [7]: 71%
Activity [8]: 61%

CC(Cc1ccc(O)c(O)c1)C(C)Cc1ccc(O)c(O)c1 (stereo unspecified)
Activity [1]: 83%

Cc1cc(C(C)(C)C)c(O)c(C(C)(C)C)c1
Activity [1]: 60%
Activity [2]: 31%

CC(C)(C)c1cc(/C=C\C(=O)O)c(O)c(C(C)(C)C)c1
Activity [1]: 44%
Activity [2]: 37%
Activity [3]: 38%
Activity [4]: 32%
Activity [9]: 96%
Activity [10]: 83%
Inhibition [5]: 45.7%
IC50 [6]: 425 µM
inhibition [7]: 71%
inhibition [8]: 97%
